This passage reports EC50 and IC50 results from US20220380342A1, “BIPHENYL DERIVATIVES FOR BLOCKING PD-1/PD-L1 INTERACTION, PREPARATION METHOD THEREFOR AND USE THEREOF” (Abbisko Therapeutics Co., Ltd., priority 2019, published 2022).

In assay [1] the target is T1, interaction between PD-1 and PD-L1 expressed on cell surfaces (Jurkat/NF-κB-luc/PD1 cells cocultured with Raji-PD-L1 cells) (Homo sapiens, UniProt Q9NZQ7).
T1 construct: expressed in transfected cells; host or cells: Raji cells (PD-L1); Jurkat cells (PD-1, NF-κB-luc reporter)
T1 sequence (Q9NZQ7 19-290): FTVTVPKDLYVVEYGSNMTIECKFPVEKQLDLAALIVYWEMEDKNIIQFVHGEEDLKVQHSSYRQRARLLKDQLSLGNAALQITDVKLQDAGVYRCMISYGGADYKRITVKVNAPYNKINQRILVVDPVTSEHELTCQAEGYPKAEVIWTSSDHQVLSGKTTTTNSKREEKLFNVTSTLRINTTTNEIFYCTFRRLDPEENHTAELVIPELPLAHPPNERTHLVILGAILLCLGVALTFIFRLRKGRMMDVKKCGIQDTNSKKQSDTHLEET
The experiment in a line: Jurkat reporter gene cellular assay. The format is cell-based. The following applies: OKT3 1 μg/mL stimulation, 6 hrs, activation fold vs DMSO. As for the experimental part: The effect of compounds of the examples of the present invention on the interaction between PD-1 and PD-L1 expressed on cell surfaces, and the related influence on T cell functions, were determined by a Jurkat reporter gene cellular assay.
Briefly, the reporter gene plasmid of NF-κB-luc and the plasmid of human PD-1 were transfected into Jurkat cells to establish a stably transfected cell line capable of stably expressing both PD-1 and NF-κB-Luc reporter genes; the expression level of PD-1 on the cell surface was confirmed by flow cytometry; and the expression of the reporter gene was confirmed via the response of the reporter gene stimulated by OKT-3 and Raji cells.
In addition, the plasmid of human PD-L1 was transfected into Raji cells to obtain a cell line capable of stably expressing PD-L1. Jurkat/NF-κB-luc/PD1 cells and Raji-PD-L1 cells were then cocultured and stimulated with OKT-3. On this basis, the compounds were added, and the enhancement of the signal pathway of T cell activation by the inhibitory effect of the compounds on the interaction between PD-1 and PD-L1 was evaluated by readings of reporter gene responses. The specific experimental process was as follows:
1) 30 μL of compound or antibody solution was added to each well of a white 96-well plate (Corning, 3610) at different diluted concentrations, and 10 μL of OKT3 (Biolegend, 317326) was then added (the final concentration of OKT3: 1 μg/mL);
2) 20 μL of Raji-PD-L1 cell suspension was added to each well with 5*10^4 cells for each well, and was incubated in an incubator for 20 min;
3) 20 μL of Jurkat/NF-Kb-luc/PD-1 cell suspension was added to each well with 5*10^4 cells for each well, and was well mixed, and 6 hrs later, Bright-glo (Promega, E2620) was applied and plates were read on Envision;
4) The reading of each well treated with the compound was compared with the reading of each well treated with DMSO to obtain the activation fold of the compound; and
5) EC50 values of compounds of the examples of the present invention were determined by non-linear regression analysis of activation folds at different compound concentrations.

Assay [2] deals with T2, interaction between PD-1 and PD-L1 (Homo sapiens, UniProt Q9NZQ7).
T2 construct: purchased Cisbio 64ICP01PEG or 64ICP01PEH
T2 sequence (Q9NZQ7 19-238 limits assumed): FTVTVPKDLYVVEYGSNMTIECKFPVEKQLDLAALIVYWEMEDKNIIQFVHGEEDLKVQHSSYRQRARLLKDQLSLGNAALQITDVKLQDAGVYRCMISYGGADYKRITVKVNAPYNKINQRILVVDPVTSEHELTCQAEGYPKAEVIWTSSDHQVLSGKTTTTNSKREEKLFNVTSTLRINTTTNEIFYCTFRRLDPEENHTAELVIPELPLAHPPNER
The experiment in a line: PD1-PDL1 HTRF binding activity test. The settings on record: Cisbio PD-1/PD-L1 binding assay kit; percent inhibition vs DMSO. As for the experimental part:
The effect of compounds of the examples of the present invention on the interaction between PD-1 and PD-L1 was determined by the PD-1/PD-L1 binding assay kit from Cisbio (#64ICP01PEG or 64ICP01PEH). The detailed experimental process was as follows:
1) Pre-diluted compound solution, 4 μL of Tag1-PD-L1 and 4 μL of Tag2-PD1 were added to each well of a 384-well plate;
2) After the mixture was incubated at room temperature for 15 min, 5 μL of anti-Tag1-Eu3+ antibody and 5 μL of anti-Tag2-XL665 antibody were then added;
3) After incubated for 2 hrs at room temperature or overnight at 4° C., plates were read on Envision of Perkin Elmer; and readings at 665 nm and 620 nm were recorded, and the ratio of the two readings was taken as a reading for each well;
4) The reading of each well after compound treatment was compared with the reading of DMSO treated wells to obtain the percent inhibition of the compound; and
5) IC50 values of compounds of the examples of the present invention were determined by non-linear regression analysis of percent inhibition at different compound concentrations.
In general terms: Time-resolved FRET reads energy transfer from a long-lived donor to a nearby acceptor.

In general, EC50 refers to the concentration needed to bring the measured effect to its halfway point. A higher EC50 goes with weaker potency. For orientation: IC50 means the concentration at which inhibition is half-maximal. Higher therefore signals weaker potency. As for `Cc1c(NC(=O)c2cc(C3CC3)c(CN[C@H](C)CO)cn2)cccc1-c1cccc(NC(=O)c2cc(C3CC3)c(CN[C@H](CO)C(=O)O)cn2)c1C` [Example 38, ((4-cyclopropyl-6-((3′-(4-cyclopropyl-5-((((R)-1-hydroxypropan-2-yl)amino)methyl)picolinamido)-2,2-dimethyl-[1,1′-biphenyl]-3-yl)carbamoyl)pyridin-3-yl)methyl)-D-serine], in assay [1], the EC50 was 37.3 nM. Moreover, the IC50 in assay [2] amounted to 0.67 nM.
Compound `CCOC(=O)[C@@H](CO)NCc1cnc(C(=O)Nc2cccc(-c3cccc(NC(=O)c4cc(C5CC5)c(CN[C@H](C)CO)cn4)c3C)c2C)cc1C1CC1` [Example 38-1, Ethyl ((4-cyclopropyl-6-((3′-(4-cyclopropyl-5-((((R)-1-hydroxypropan-2-yl)amino)methyl)picolinamido)-2,2′-dimethyl-[1,1′-biphenyl]-3-yl)carbamoyl)pyridin-3-yl)methyl)-D-serinate] displayed an EC50 in assay [1] of 219 nM. The IC50 in assay [2] was 4.77 nM.
Turning to `Cc1c(NC(=O)c2cc(C3CC3)c(CN[C@@H](C)CO)cn2)cccc1-c1cccc(NC(=O)c2cc(C3CC3)c(CN[C@H](CO)C(=O)O)cn2)c1C` [Example 39, ((4-cyclopropyl-6-((3′-(4-cyclopropyl-5-((((S)-1-hydroxypropan-2-yl)amino)methyl)picolinamido)-2,2′-dimethyl-[1,1′-biphenyl]-3-yl)carbamoyl)pyridin-3-yl)methyl)-D-serine], in assay [1], the EC50 amounted to 36 nM. Further, the IC50 in assay [2] worked out at 1.89 nM.
For `CCOC(=O)[C@@H](CO)NCc1cnc(C(=O)Nc2cccc(-c3cccc(NC(=O)c4cc(C5CC5)c(CN[C@@H](C)CO)cn4)c3C)c2C)cc1C1CC1` [Example 39-1, Ethyl ((4-cyclopropyl-6-((3′-(4-cyclopropyl-5-((((S)-1-hydroxypropan-2-yl)amino)methyl)picolinamido)-2,2′-dimethyl-[1,1′-biphenyl]-3-yl)carbamoyl)pyridin-3-yl)methyl)-D-serinate] the same measures were 264 nM and 3.22 nM.
For `Cc1c(NC(=O)c2cc(C3CC3)c(CN[C@H]3CCC[C@@H]3O)cn2)cccc1-c1cccc(NC(=O)c2cc(C3CC3)c(CN[C@H](CO)C(=O)O)cn2)c1C` [Example 40, ((4-cyclopropyl-6-((3′-(4-cyclopropyl-5-((((1S,2S)-2-hydroxycyclopentyl)amino)methyl)picolinamido)-2,2′-dimethyl-[1,1′-biphenyl]-3-yl)carbamoyl)pyridin-3-yl)methyl)-D-serine] the same measures were 39.2 nM and 1.68 nM.
For `Cc1c(NC(=O)c2cc(C3CC3)c(CNC3CCOCC3)cn2)cccc1-c1cccc(NC(=O)c2cc(C3CC3)c(CN[C@H](CO)C(=O)O)cn2)c1C` [Example 51, ((4-cyclopropyl-6-((3′-(4-cyclopropyl-5-(((tetrahydro-2H-pyran-4-yl)amino)methyl)picolinamido)-2,2′-dimethyl-[1,1′-biphenyl]-3-yl)carbamoyl)pyridin-3-yl)methyl)-D-serine] the same measures were 87.1 nM and 2.05 nM.
`Cc1c(NC(=O)c2cc(C3CC3)c(CN[C@H](CO)C(=O)O)cn2)cccc1-c1cccc(NC(=O)c2cc(C3CC3)c(CN3CC[C@@H](O)C3)cn2)c1C` [Example 53, ((4-cyclopropyl-6-((3′-(4-cyclopropyl-5-(((R)-3-hydroxypyrrolidin-1-yl)methyl)picolinamido)-2,2′-dimethyl-[1, 1′-biphenyl]-3-yl)carbamoyl)pyridin-3-yl)methyl)-D-serine] had an EC50 in assay [1] of 86.8 nM. Besides, the IC50 in assay [2] worked out at 3.61 nM.
For `CCOC(=O)[C@@H](CO)NCc1cnc(C(=O)Nc2cccc(-c3cccc(NC(=O)c4cc(C5CC5)c(CN5CC[C@@H](O)C5)cn4)c3C)c2C)cc1C1CC1` [Example 53-1, Ethyl ((4-cyclopropyl-6-((3′-(4-cyclopropyl-5-(((R)-3-hydroxypyrrolidin-1-yl)methyl)picolinamido)-2,2′-dimethyl-[1,1′-biphenyl]-3-yl)carbamoyl)pyridin-3-yl)methyl)-D-serinate] the same measures were 258 nM and 5.77 nM.
For `Cc1c(NC(=O)c2cc(C3CC3)c(CN[C@H](CO)C(=O)O)cn2)cccc1-c1cccc(NC(=O)c2cc(C3CC3)c(CN3CCC[C@H]3CO)cn2)c1C` [Example 54] the same measures were 62.3 nM and 0.91 nM.
For `Cc1c(NC(=O)c2cc(C3CC3)c(CN[C@H](CO)C(=O)O)cn2)cccc1-c1cccc(NC(=O)c2cc(C3CC3)c(CN3CCC[C@@H]3CO)cn2)c1C` [Example 55] the same measures were 99.5 nM and 3.18 nM.
Compound `Cc1c(NC(=O)c2cc(C3CC3)c(CN[C@@](C)(CO)C(=O)O)cn2)cccc1-c1cccc(NC(=O)c2cc(C3CC3)c(CN[C@@](C)(CO)C(=O)O)cn2)c1C` [Example 67, (2S,2′S)-2,2′-((((((2,2′-dimethyl-[1,1′-biphenyl]-3,3′-diyl)bis(azanediyl))bis(carbonyl))bis(4-cyclopropylpyridine-6,3-diyl))bis(methylene))bis(azanediyl))bis(3-hydroxy-2-methylpropanoic acid)] had an EC50 in assay [1] of 19.7 nM. This compound also returned an IC50 in assay [2] of 0.61 nM.
